Results taken from publication PMC7047876, “Potent Chimeric Antimicrobial Derivatives of the Medicago truncatula NCR247 Symbiotic Peptide” (Frontiers in Microbiology, 2020).
Converted amounts (≈) assume the structure as drawn. “Also recorded” adds a separate entry of the source. Like-named read-outs stand apart in the source and are kept apart here. Peptide text beside a SMILES is read from it.

Columns and labels:
Assay type in all cases: cell-based
[1] = tested on: human melanoma A375 cells; assay: XTT cell proliferation (cytotoxicity) assay; settings: 72 h treatment, OD450, three biological repeats
Experimental: The cytotoxicity of peptides X1-NCR247C and NCR247C-X2 was determined against the human melanoma A375 cells with XTT cell proliferation assay kit (PanReac Applichem) and a benchtop microplate reader (Multiskan RC, Thermo Labsystems) according to the manufacturers’ instructions. A375 human melanoma cell line was obtained from ATCC and maintained in DMEM (Lonza) supplemented by 10% FBS (Euroclone) in a humidified incubator at 37°C and 5% CO2. A375 cells were seeded to 96-well plates (4,000 cells/well) and treated with the peptides for 72 h. Cells without peptides served as negative control and the blank sample was the medium. Reduction of the tetrazolium salt XTT by the viable cells to the orange colored compounds of formazan was measured at OD450. The XTT assay was performed in three biological repeats.

[2] = tested on: Acinetobacter baumannii (ATCC 17978); assay: microbe, parasite or virus in culture; settings: read-out: Minimal bactericidal concentration (MBC) A. b.
Description: (§1) The pathogenic bacterial strains obtained from the ATCC (United States) and NCTC (National Collection of Type Cultures – England) were the Gram-positive: Enterococcus faecalis (ATCC 29212), Staphylococcus aureus (HNCMO112011), Listeria monocytogenes (ATCC 19111) and the Gram-negative: Pseudomonas aeruginosa (ATCC 27853), Escherichia coli (ATCC 8739), Salmonella enterica (ATCC 13076), Klebsiella pneumoniae (NCTC 13440), Acinetobacter baumannii (ATCC 17978).
(§2) Overnight bacterial cultures grown in LB were diluted and grown to OD600 = 0.2–0.6 at 37°C with shaking. After harvesting and washing bacteria in PPB, the suspensions were adjusted to OD600 = 0.1 corresponding to ∼10^7 bacteria/mL. Antimicrobial activity of the peptides and the antibiotics was determined in PPB in 96 well microplates using 10 μL bacterial suspension and 90 μL of the 2-fold serial dilutions of peptides or antibiotics. Peptides were tested from 25 μM to 0.125 μM whereas the antibiotics; carbenicillin (Cb) from Duchefa Biochemie (Prod.No. C0109.0025) and levofloxacin (Lvx) from Sigma-Aldrich (Prod.No. 28266-10MG-F) from […] to 0.1 μM. The microplates were incubated for 3 h at 37°C with 250 rpm shaking and then 5 μl from each sample was placed on LB agar and the growth of bacteria was monitored after overnight incubation at 37°C. The lowest concentration of the antimicrobial agents, which completely eliminated viable bacteria was the minimal bactericidal concentration (MBC).

[3] = tested on: Salmonella enterica (ATCC 13076); assay: microbe, parasite or virus in culture; settings: read-out: Minimal bactericidal concentration (MBC) S. e.
Description: as §1, §2

[4] = tested on: Escherichia coli (ATCC 8739); assay: microbe, parasite or virus in culture; settings: read-out: Minimal bactericidal concentration (MBC) E. c.
Description: as §1, §2

[5] = tested on: Klebsiella pneumoniae (NCTC 13440); assay: microbe, parasite or virus in culture; settings: read-out: Minimal bactericidal concentration (MBC) K. p.
Description: as §1, §2

[6] = tested on: Enterococcus faecalis (ATCC 29212); assay: microbe, parasite or virus in culture; settings: read-out: Minimal bactericidal concentration (MBC) E. f.
Description: as §1, §2

[7] = tested on: Listeria monocytogenes (ATCC 19111); assay: microbe, parasite or virus in culture; settings: read-out: Minimal bactericidal concentration (MBC) L. m.
Description: as §1, §2

[8] = tested on: Staphylococcus aureus (HNCMO112011); assay: microbe, parasite or virus in culture; settings: read-out: Minimal bactericidal concentration (MBC) S. a.
Description: as §1, §2

[9] = tested on: Pseudomonas aeruginosa (ATCC 27853); assay: microbe, parasite or virus in culture; settings: read-out: Minimal bactericidal concentration (MBC) P. a.
Description: as §1, §2

[10] = tested on: Acinetobacter baumannii
Description: as §1
(§3) Ca^2+ and Mg^2+ can inhibit the antimicrobial activity of cationic peptides, therefore the MBC and MIC values were also determined in MHB, which unlike PPB contains divalent cations and allows growth of bacteria. Bacteria were grown and prepared similarly except that bacteria were resuspended in MHB. 10 μl of bacteria OD600 = 0.1, supplemented with 45 μl MHB and 45 μl of 2-fold dilution series of peptides, were cultivated for 3 and 20 h at 37°C with shaking. Optical density of each sample was measured (Hidex Sense Microplate Reader with Plate Reader Software version 5064) and 5 μl was placed on LB agar plates after 3 and 20 h treatment. The minimal inhibitory concentration (MIC) corresponded to the lowest concentration, which inhibited growth.

[11] = tested on: Staphylococcus aureus
Description: as §1, §3

[12] = tested on: Escherichia coli
Description: as §1, §3

[13] = tested on: ESKAPE bacteria, L. monocytogenes and S. enterica; assay: Antimicrobial activity in PPB, summarised over the tested bacteria; settings: 3 h in PPB; carbenicillin range excludes L. monocytogenes; peptide G range excludes E. faecalis
Description: as §1, §2

[14] = Acinetobacter baumannii, ATCC17978, 3 h treatment in PPB (20 mM potassium-phosphate buffer, pH 7.4), 37°C, then plating on LB agar
[15] = Salmonella enterica, ATCC13076, 3 h treatment in PPB (20 mM potassium-phosphate buffer, pH 7.4), 37°C, then plating on LB agar
[16] = Escherichia coli, ATCC8739, 3 h treatment in PPB (20 mM potassium-phosphate buffer, pH 7.4), 37°C, then plating on LB agar
[17] = Klebsiella pneumoniae, NCTC13440, 3 h treatment in PPB (20 mM potassium-phosphate buffer, pH 7.4), 37°C, then plating on LB agar
[18] = Enterococcus faecalis, ATCC29212, 3 h treatment in PPB (20 mM potassium-phosphate buffer, pH 7.4), 37°C, then plating on LB agar
[19] = Listeria monocytogenes, ATCC19111, 3 h treatment in PPB (20 mM potassium-phosphate buffer, pH 7.4), 37°C, then plating on LB agar
[20] = Staphylococcus aureus, 3 h treatment in PPB (20 mM potassium-phosphate buffer, pH 7.4), 37°C, then plating on LB agar
[21] = Pseudomonas aeruginosa, ATCC27853, 3 h treatment in PPB (20 mM potassium-phosphate buffer, pH 7.4), 37°C, then plating on LB agar

SMILES	Cytotoxicity / viability of A375 cells [1]	MBC, range over the tested bacteria as summarised in the text [13]	MBC [2, 14]	MBC [3, 15]	MBC [4, 16]	MBC [5, 17]	MBC [6, 18]	MBC [7, 19]	MBC [8, 20]	MBC [9, 21]	other results
CC[C@H](C)[C@H](NC(=O)[C@H](CCCCN)NC(=O)[C@H](CCCCN)NC(=O)[C@H](C)NC(=O)[C@H](CC(C)C)NC(=O)[C@H](C)NC(=O)[C@H](C)NC(=O)[C@H](CC(C)C)NC(=O)[C@H](C)NC(=O)[C@H](CCCCN)NC(=O)[C@H](CCCNC(=N)N)NC(=O)[C@H](CCCNC(=N)N)NC(=O)[C@H](CCCNC(=N)N)NC(=O)[C@H](CS)NC(=O)[C@H](Cc1ccc(O)cc1)NC(=O)[C@H](CC(C)C)NC(=O)[C@@H]1CCCN1C(=O)[C@H](CCCNC(=N)N)NC(=O)[C@H](CCCNC(=N)N)NC(=O)[C@H](CS)NC(=O)[C@H](CCC(N)=O)NC(=O)[C@@H](N)CCC(N)=O)C(=O)N[C@@H](CC(C)C)C(N)=O [F, NCR247C-X2] (H-QQCRRPLYCRRRKALAALAKKIL-NH2; N-terminus assumed)	no cytotoxicity up to 12.5 μM; also recorded: slight decrease of the viable cell number was observed at 25 μM	–	–	–	–	–	–	–	–	–	–
CSCC[C@H](NC(=O)[C@H](CCCCN)NC(=O)[C@H](Cc1ccccc1)NC(=O)[C@H](CC(N)=O)NC(=O)[C@H](CC(C)C)NC(=O)[C@@H]1CCCN1C(=O)[C@@H](N)CCCNC(=N)N)C(=O)N[C@@H](CC(C)C)C(=O)N[C@@H](CCCNC(=N)N)C(=O)N[C@@H](Cc1ccccc1)C(=O)N[C@@H](Cc1c[nH]c2ccccc12)C(=O)NCC(=O)N[C@@H](CCC(N)=O)C(=O)N[C@@H](CCC(N)=O)C(=O)N[C@@H](CCC(N)=O)C(=O)N[C@@H](CS)C(=O)N[C@@H](CCCNC(=N)N)C(=O)N[C@@H](CCCNC(=N)N)C(=O)N1CCC[C@H]1C(=O)N[C@@H](CC(C)C)C(=O)N[C@@H](Cc1ccc(O)cc1)C(=O)N[C@@H](CS)C(=O)N[C@@H](CCCNC(=N)N)C(=O)N[C@@H](CCCNC(=N)N)C(=O)N[C@@H](CCCNC(=N)N)C(N)=O [D, X1-NCR247C] (H-RPLNFKMLRFWGQQQCRRPLYCRRR-NH2; N-terminus assumed)	did not show differences	–	–	–	–	–	–	–	–	–	MBC ([2]; ATCC 17978, 3 h, pH 7.4): 3.1 µM (≈ 10.3 µg/mL); MBC ([3]; ATCC 13076, 3 h, pH 7.4): 1.6 µM (≈ 5.29 µg/mL); MBC ([4]; ATCC 8739, 3 h, pH 7.4): 3.1 µM (≈ 10.3 µg/mL); MBC ([5]; NCTC 13440, 3 h, pH 7.4): 12.5 µM (≈ 41.4 µg/mL); MBC ([6]; ATCC 29212, 3 h, pH 7.4): 6.3 µM (≈ 20.8 µg/mL); MBC ([7]; ATCC 19111, 3 h, pH 7.4): 3.1 µM (≈ 10.3 µg/mL); MBC ([8]; HNCMO112011, 3 h, pH 7.4): 3.1 µM (≈ 10.3 µg/mL); MBC ([9]; ATCC 27853, 3 h, pH 7.4): 3.1 µM (≈ 10.3 µg/mL); MBC in Mueller Hinton Broth, panel (A), A. b. ([10]; 3 h): 6.3 µM (≈ 20.8 µg/mL); MBC in Mueller Hinton Broth, panel (B), A. b. ([10]; 20 h): 3.1 µM (≈ 10.3 µg/mL); MIC in Mueller Hinton Broth, panel (C), A. b. ([10]; 20 h): 3.1 µM (≈ 10.3 µg/mL); MBC in Mueller Hinton Broth, panel (A), S. a. ([11]; 3 h): 25 µM (≈ 82.7 µg/mL); MBC in Mueller Hinton Broth, panel (B), S. a. ([11]; 20 h): 3.1 µM (≈ 10.3 µg/mL); MIC in Mueller Hinton Broth, panel (C), S. a. ([11]; 20 h): 3.1 µM (≈ 10.3 µg/mL); MBC in Mueller Hinton Broth, panel (A), E. c. ([12]; 3 h): 12.5 µM (≈ 41.4 µg/mL); MBC in Mueller Hinton Broth, panel (B), E. c. ([12]; 20 h): 3.1 µM (≈ 10.3 µg/mL); MIC in Mueller Hinton Broth, panel (C), E. c. ([12]; 20 h): 3.1 µM (≈ 10.3 µg/mL)
C[C@H]1COc2c(N3CCN(C)CC3)c(F)cc3c(=O)c(C(=O)O)cn1c23 [Lvx, levofloxacin, reference compound]	–	1.25 to 320 µM	20 µM (≈ 7.23 µg/mL)	1.3 µM (≈ 0.47 µg/mL)	5 µM (≈ 1.81 µg/mL)	320 µM (≈ 116 µg/mL)	160 µM (≈ 57.8 µg/mL)	320 µM (≈ 116 µg/mL)	2.5 µM (≈ 0.903 µg/mL)	1.3 µM (≈ 0.47 µg/mL)	–
CC1(C)S[C@@H]2[C@H](NC(=O)C(C(=O)O)c3ccccc3)C(=O)N2[C@H]1C(=O)O (stereo partly shown) [Cb, carbenicillin, reference compound]	–	640 to 10240 µM	5120 µM (≈ 1940 µg/mL)	640 µM (≈ 242 µg/mL)	1280 µM (≈ 484 µg/mL)	> 10200 µM	5120 µM (≈ 1940 µg/mL)	80 µM (≈ 30.3 µg/mL)	640 µM (≈ 242 µg/mL)	10200 µM (≈ 3870 µg/mL)	–
